Assay results reported in patent US8153693B2, “Compounds for the selective treatment of the intestinal immuno-inflammatory component of the celiac disease” (Giuliani International Limited, priority 2007, dated 2012).

Test system: IFN
Assay: Cytokine assay (ELISA) from homogenate of cultured duodenal biopsies: IFN
Format: cell-based, human
Details: for IFN, PT + 5ASA O, Mean / IFN, PT + 5ASA O, Median: peptic-tryptic digest of gliadin (PT)
Experimental: The biopsies were washed in saline for two minutes at least three times. […] After an incubation time ranging from 4 h to 72 h, at a T of 37° C.: The bioptic fragment is washed three times in saline for two minutes The biopsies are homogenised by mechanical or chemical disintegration Centrifugation is carried out, the supernatant is collected and transferred in a 1.5 ml Eppendorf Fixed cytokines in the mucosal tissue are assayed by the Elisa assay.

[1] = Atrophic population, N 9, Wilcoxon p = 0.003
[2] = Atrophic population, N 9, Wilcoxon p = 0.019
[3] = Remission population, N 4, Wilcoxon p = N.S.

What does the source list for `Nc1ccc(O)c(C(=O)O)c1` [Compound 5ASA, mesalazine]?
IFN, Medium + 5ASA O, Mean (Atrophic population, N 9): 0.202; IFN, Medium + 5ASA O, Median (Atrophic population, N 9): 0.193; IFN, Difference Medium O/Medium + 5ASA O, Mean [1]: 0.0951; IFN, Difference Medium O/Medium + 5ASA O, Median [1]: 0.0560; IFN, Difference PT O/PT + 5ASA O, Mean [2]: 0.0437; IFN, Difference PT O/PT + 5ASA O, Median [2]: 0.0380; IFN, PT + 5ASA O, Mean (Atrophic population, N 9): 0.179; IFN, PT + 5ASA O, Median (Atrophic population, N 9): 0.193; IFN, Medium + 5ASA O, Mean (Remission population, N 4): 0.133; IFN, Difference Medium O/Medium + 5ASA O, Mean [3]: 0.120; IFN, Difference PT O/PT + 5ASA O, Mean [3]: 0.0230; IFN, Difference PT O/PT + 5ASA O, Median [3]: 0.0215; IFN, PT + 5ASA O, Mean (Remission population, N 4): 0.177; IFN, PT + 5ASA O, Median (Remission population, N 4): 0.161
